Results on six molecules are retold here after PMC5652740, “Inhibition of HIV-1 infection in humanized mice and metabolic stability of protein phosphatase-1-targeting small molecule 1E7-03” (Oncotarget, 2017).

Data set [1] addresses T1, Recombinant PP1 (human PP1α residues 7–300) (Homo sapiens, UniProt P62136).
T1 construct: human PP1α (residues 7–300); His; made in house; host or cells: BL21 (DE3) Escherichia coli, co-expressed with GroEL/GroES chaperones
As to the kind of experiment: Surface plasmon resonance direct binding to immobilized PP1. As to conditions: SPR; for PP1 WT KD (M): 1:1 binding model, 25°C. As for the experimental part: PP1 was purified as previously described. BL21 (DE3) Escherichia coli cells (Invitrogen, Carlsbad, CA, USA) were -transformed with a vector expressing human PP1α (residues 7–300) and pGR07, which expresses GroEL/[…] chaperones (both gifts from Dr Mathieu Bollen and Monique Beullens, KU Leuven, Belgium). The cells were grown in media supplemented with 1 mM MnCl2 at 30°C to an A600 =0.5. Arabinose (2 g per L) was added to induce expression of the GroEL/GroES chaperones. When A600 =1 was reached, the cells were transferred to 10°C and PP1 expression was induced with 0.1 mM Isopropyl β-D-1-thiogalactopyranoside for 20 hrs. Harvested cells were lysed using sonication in a solution containing in 50 mM Tris-HCl (pH 8.0), 5 mM imidazole, 700 mM NaCl, 1 mM MnCl2, 0.1% Triton X-100 (v/v) and protease inhibitors. His-tagged PP1 was purified using a Ni-NTA IMAC column (Qiagen, Valencia, CA, USA). Purified PP1 was dialyzed and stored at −70°C in 50 mM Tris-HCl (pH 8.0), 5 mM imidazole, 700 mM NaCl and 1 mM MnCl2. PP1 activity was then assayed as previously described.
The SPR measurements were conducted on Biacore T200 instrument (GE Healthcare, Piscataway, NJ) at 25°C. Recombinant PP1 was immobilized on a CM5 chip by amine coupling (GE Healthcare). PP1 (200 nM) was captured on flow cell 2 in 10 mM acetate buffer, pH 5.0, supplemented with 2 mM MnCl2. […] Flow cell 1 was used as a reference surface to subtract background signal. Also injections of the buffer alone were used to provide double reference subtraction. […] For binding and kinetics experiments, all compounds were diluted in the running buffer, at 40 μM, 20 μM, 10 μM, 5 μM, 2.5 μM, 1.25 μM and 0 μM and then passed over the two flow cells at a flow rate of 100 μl/min for 60 sec. The number of response units was recorded after the subtraction of the reference flow cell's value (Fc2-1). Two repetitions were performed for each injection. Data were analyzed using the BiaEvaluation software of Biacore with a 1:1 binding model. […] All the small molecular weight compounds were used at 1 μM.

Data set [2] is described as follows: Pharmacokinetic analysis in mice after i.p. injection. Type of data set: in vivo. To be noted: male, BALB/cJ, ip, mouse plasma after i.p. 100 mg/kg DP1-07; for AUC(0-t) / MRT last / half-life / Tmax: parent and products DP1-07P1, DP1-07P2; for Cmax: parent and products DP1-07P1, DP1-07P2 (quantified with DP1 and DP3 calibration curves); for Tmax: mouse, plasma, 100 mg/kg. As for the experimental part: The animal facilities and protocols were approved by Howard University Institutional Animal Care and Use Committee (IACUC). All experimental procedures were in accordance with the NIH Guidelines for the Care and Use of Laboratory Animals. BALB/cJ male mice (8 weeks old, 25–30 g) were purchased from Jackson Laboratory (Bar Harbor, ME, USA) and housed under pathogen-free conditions in HEPA-filtered cages and kept on a 12 h light/dark cycle. Compounds were administered to mice via intraperitoneal (i.p.) injection with maximum achievable doses of 30 mg/kg 1E7-03 (100 μl injection of 8 mM 1E7-03 in 80% DMSO/20% saline) and 100 mg/kg DP1-07 (100 μl injection of 100 mM DP1-07 in 40% propylene glycol/10% DMSO/50% saline). Blood samples were collected at different time points (15 min, 30 min, 1 hr, 3 hr, 6 hrs and 24 hrs) for each group (n=3 mice per group). For each sample, 20 μl of plasma was mixed with 80 μl cold acetone, and centrifuged at 13,000 rpm for 5 min. The supernatant was transferred to a clean test tube and dried in a SpeedVac concentrator. The residue was re-constituted in 50 μl of acetonitrile for LC-MS analysis. Calibration curves were prepared by spiking 1E7-03, DP1, DP3 and DP1-07 into the drug-free mouse plasma and subjected to similar sample extraction procedures. The plasma concentration–time profile of each analyte was constructed and pharmacokinetic parameters were determined by non-compartmental method using Phoenix WinNonlin Version 5.3 (Pharsight Corporation, Mountain View, CA).
A 10 μl aliquots from each sample were loaded to a LC-20AD nano HPLC system (Shimadzu Corporation, Columbia, MD, USA) coupled to LTQ XL Orbitrap mass spectrometer (Thermo Fisher Scientific) with the installed Xcalibur software (version 2.0.7, Thermo Fisher Scientific). Liquid chromatography was carried out on an in-house made nano-HPLC column (Polymicro Technologies Inc., Phoenix, AZ, USA) packed with reverse phase PolySulfoethyl A, 5μM, 200 Å (PolyLC Inc., Columbia, MD, USA). Mobile phase A was 0.1% formic acid in water and mobile phase B - 0.1% formic acid in acetonitrile. The elution was performed at a flow rate of 600 nl/min over 40 min using a multisegment linear gradient of mobile phase B as follows: 0–6.02 min, 1% B; 6.02–6.11 min, 1–2% B; 6.11–20 min, 2−80% B; 20–25 min, 80% B; 25–30 min, 80–85% B; 30–31 min, […]; 31–40 min, 2% B (v/v). The Orbitrap was operated under data-dependent acquisition mode. The spray voltage, capillary temperature and capillary voltage were set to 2.0 kV, 200 °C, and 39.5 V, respectively. Full-scan mass spectra were acquired in Orbitrap over 150−1500 m/z with a resolution of 30 000, followed by MS^n scans by CID activation mode. The precursor ions were fragmented with collision energy of 18 with activation Q of 0.25 and an activation time of 30 ms. Dynamic exclusion was enabled with a repeat count of 2, a repeat duration of 15 s, exclusion duration of 20 s, an exclusion list size of 50. The mass spectrometer was also operated in NL scan of m/z 18.01, 45.05, 71.03 and 72.02 and MRM mode. The MRM transitions were controlled by a segmented program in order to short the scan cycle and increase sensitivity.

The test system of data set [3] is HIV-1 env and gag mRNA. As to the kind of experiment: HIV-1 env and gag mRNA expression by real-time RT-PCR in infected CEM T cells. Type of data set: cell-based. To be noted: 10 μM 1E7-03, DP1, DP3; 5 μM AZT, 3TC; in words. As for the experimental part:
For quantitative analysis of HIV-1 RNA, CEM T cells were infected with HIV-1-LUC-G virus. Cells were treated with 10 μM 1E7-03, 10 μM DP1, 10 μM DP3, 5 μM AZT or 5 μM 3TC and control cells were untreated or treated with DMSO. Total RNA was isolated using Trizol Reagent (Invitrogen, Carlsbad, CA) according to the manufacturer's protocol. Total RNA (100 ng) was reverse transcribed to cDNA using Superscript™ RT-PCR kit (Invitrogen, Carlsbad, CA). Hexamers and oligo-dT were used as primers. For real-time PCR analysis, cDNA was amplified using Roche LightCycler 480 (Roche Diagnostics) and SYBR Green1 Master mix (Roche Diagnostics). PCR was run for 45 cycles and each cycle included denaturation at 95°C for 10 seconds, annealing at 60°C for 10 seconds, and extension at 72°C for 10 seconds. Quantification of env and gag was carried using 18S RNA as a normalization standard. Quantification of housekeeping genes, β-actin and RSP13 was carried relative to 18S RNA. Mean Cp values were determined and ΔΔCt method was used to calculate relative expression levels. Unpaired t-test was used to test statistical significance.
The following primer sequences were used: env, forward - […], reverse-[…]; gag, forward- […], reverse- […]; β-actin, forward- […], reverse-[…]; RSP13, forward- […], reverse- […]; and 18SrRNA, forward- […], reverse- […].

T1 sequence (P62136 7-300): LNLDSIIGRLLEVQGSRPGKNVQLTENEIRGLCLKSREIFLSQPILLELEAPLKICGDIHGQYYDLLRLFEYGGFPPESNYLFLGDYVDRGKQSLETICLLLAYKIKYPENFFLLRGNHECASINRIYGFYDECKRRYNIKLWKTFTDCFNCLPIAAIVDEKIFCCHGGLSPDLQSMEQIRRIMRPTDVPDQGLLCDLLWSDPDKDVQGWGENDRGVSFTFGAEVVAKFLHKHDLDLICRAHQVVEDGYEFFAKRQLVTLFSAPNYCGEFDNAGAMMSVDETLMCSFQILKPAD

“pRb-Tat mutant: mutant pRb-Tat peptide with QACA mutation in the RVxF motif (HIPRSPYKFPSSPLRKKCCFHCQACAITK) [reference compound]”: the entries for the “PP1 WT KD (M)” value in data set [1] and in data set [1] (listed as mutant pRb-Tat) were “No binding” and “did not bind”, respectively.

Consider `COc1ccc(/C=C2\CCCc3c2nc2ccccc2c3C(=O)O)cc1OC` [DP1-07P2], for which, in data set [2], the AUC(0-t) came out at 288 µM·h, the MRT last came out at 8.86 h, the half-life is 4.66 h and the Cmax amounted to 23.7 µM. Further, in data set [2], the Tmax was 6 h.

Consider `Nc1ccn([C@@H]2CS[C@H](CO)O2)c(=O)n1` [3TC, lamivudine, reference compound], for which, in data set [3], the “HIV-1 env mRNA expression” value is listed as “strong inhibition” and the “HIV-1 gag mRNA expression” value is recorded as “strong inhibition”.

On to `COc1ccc(/C=C2\CCCc3c2nc2ccccc2c3C(=O)OC(C)C(=O)O)cc1OC` (centres unmarked) [DP1-07P1], for which, in data set [2], the area under the curve AUC(0-t) came to 124 µM·h, the MRT last is 10.5 h, the half-life is 13.4 h and the Cmax was 7.54 µM. The Tmax in data set [2] was 6 h.

With `CC[C@H](C)[C@H](NC(=O)[C@H](Cc1ccccc1)NC(=O)[C@H](CS)NC(=O)[C@@H](NC(=O)[C@H](CCC(N)=O)NC(=O)[C@H](CS)NC(=O)[C@H](Cc1c[nH]cn1)NC(=O)[C@H](Cc1ccccc1)NC(=O)[C@H](CS)NC(=O)[C@H](CS)NC(=O)[C@H](CCCCN)NC(=O)[C@H](CCCCN)NC(=O)[C@H](CCCNC(=N)N)NC(=O)[C@H](CC(C)C)NC(=O)[C@@H]1CCCN1C(=O)[C@H](CO)NC(=O)[C@H](CO)NC(=O)[C@@H]1CCCN1C(=O)[C@H](Cc1ccccc1)NC(=O)[C@H](CCCCN)NC(=O)[C@H](Cc1ccc(O)cc1)NC(=O)[C@@H]1CCCN1C(=O)[C@H](COP(=O)(O)O)NC(=O)[C@H](CCCNC(=N)N)NC(=O)[C@@H]1CCCN1C(=O)[C@@H](NC(=O)[C@@H](N)Cc1c[nH]cn1)[C@@H](C)CC)C(C)C)C(=O)N[C@H](C(=O)N[C@@H](CCCCN)C(=O)O)[C@@H](C)O` [pRb-Tat, reference compound], the “times higher binding ability than 1E7-03, DP1 and DP3” value in data set [1] is 20-40 times.

Turning to `Cc1cn([C@H]2C[C@H](N=[N+]=[N-])[C@@H](CO)O2)c(=O)[nH]c1=O` [AZT, azidothymidine, reference compound], in data set [3], the “HIV-1 env mRNA expression” value is “strong inhibition” and the “HIV-1 gag mRNA expression” value was “strong inhibition”.
